Test results published in paper PMC10444810, “Induction of open-form bile canaliculus formation by hepatocytes for evaluation of biliary drug excretion” (Communications Biology, 2023).
Where a name gives a salt, the structure may show the parent alone. Read-outs that look alike come from different tables or passages of the source.

What was measured:
[1] = human, cited from earlier work
in vitro = conditions: human, Biliary excretion clearance, observed, CLbile, int
[2] = cited from earlier work; for Rb: blood/plasma concentration ratio
[3] = tested on: sandwich-cultured PXB-cells; conditions: human, 1 μM
[4] = cited from earlier work
[5] = Reported human in vivo biliary excretion clearance and intrinsic clearance estimated from it (Eq. 4)
[6] = icHep permeation assay (sinusoidal to bile side) to estimate drug biliary excretion clearance; conditions: human
MRP2 [7] = molecular target: T1, MRP2 (Homo sapiens, UniProt Q92887); assay: MRP2-mediated biliary transport of CDF (CDFDA permeation assay); conditions: benzbromarone 100 μM, icHep
T1 sequence (Q92887 whole entry): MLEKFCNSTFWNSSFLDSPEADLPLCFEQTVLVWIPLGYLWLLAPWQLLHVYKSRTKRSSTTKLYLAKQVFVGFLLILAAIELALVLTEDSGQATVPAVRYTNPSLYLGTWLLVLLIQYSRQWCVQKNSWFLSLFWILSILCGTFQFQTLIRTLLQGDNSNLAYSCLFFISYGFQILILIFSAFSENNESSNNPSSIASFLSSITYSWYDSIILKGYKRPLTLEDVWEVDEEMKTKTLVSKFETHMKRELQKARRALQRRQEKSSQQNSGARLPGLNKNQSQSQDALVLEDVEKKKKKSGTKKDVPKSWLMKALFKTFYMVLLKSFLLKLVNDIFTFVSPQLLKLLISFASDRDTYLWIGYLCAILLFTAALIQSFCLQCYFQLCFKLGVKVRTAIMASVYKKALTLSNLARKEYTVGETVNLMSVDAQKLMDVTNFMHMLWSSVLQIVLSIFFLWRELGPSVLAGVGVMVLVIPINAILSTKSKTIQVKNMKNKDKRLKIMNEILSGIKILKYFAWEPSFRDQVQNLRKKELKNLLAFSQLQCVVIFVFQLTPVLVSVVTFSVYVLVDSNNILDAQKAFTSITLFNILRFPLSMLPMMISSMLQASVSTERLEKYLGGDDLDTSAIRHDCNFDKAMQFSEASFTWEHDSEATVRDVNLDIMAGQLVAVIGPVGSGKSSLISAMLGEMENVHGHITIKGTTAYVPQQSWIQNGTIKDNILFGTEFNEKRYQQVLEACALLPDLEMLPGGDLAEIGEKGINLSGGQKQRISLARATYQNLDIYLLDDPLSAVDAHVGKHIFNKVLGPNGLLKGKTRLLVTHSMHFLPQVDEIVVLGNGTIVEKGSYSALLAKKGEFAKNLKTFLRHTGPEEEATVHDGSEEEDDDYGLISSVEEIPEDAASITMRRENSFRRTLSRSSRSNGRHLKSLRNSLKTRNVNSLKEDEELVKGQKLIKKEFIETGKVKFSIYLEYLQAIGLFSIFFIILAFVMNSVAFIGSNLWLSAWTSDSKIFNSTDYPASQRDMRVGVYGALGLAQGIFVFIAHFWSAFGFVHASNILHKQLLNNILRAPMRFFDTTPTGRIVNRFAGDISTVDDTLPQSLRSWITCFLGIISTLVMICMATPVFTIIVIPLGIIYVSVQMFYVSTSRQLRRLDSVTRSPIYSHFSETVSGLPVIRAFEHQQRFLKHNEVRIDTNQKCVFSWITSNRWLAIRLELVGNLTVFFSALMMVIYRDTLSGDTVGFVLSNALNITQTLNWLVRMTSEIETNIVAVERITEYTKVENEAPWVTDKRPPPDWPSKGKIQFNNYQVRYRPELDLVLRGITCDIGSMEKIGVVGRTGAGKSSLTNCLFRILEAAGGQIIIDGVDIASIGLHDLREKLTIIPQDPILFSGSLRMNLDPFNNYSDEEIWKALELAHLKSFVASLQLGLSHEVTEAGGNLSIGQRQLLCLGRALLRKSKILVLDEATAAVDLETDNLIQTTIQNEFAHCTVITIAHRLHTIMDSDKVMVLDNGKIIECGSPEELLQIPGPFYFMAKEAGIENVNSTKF

P-gp = P-gp (Homo sapiens, UniProt P08183); conditions: two donors (HUM181001B), 1 μCi/ml, 120 min
P-gp, sequence (P08183 whole entry): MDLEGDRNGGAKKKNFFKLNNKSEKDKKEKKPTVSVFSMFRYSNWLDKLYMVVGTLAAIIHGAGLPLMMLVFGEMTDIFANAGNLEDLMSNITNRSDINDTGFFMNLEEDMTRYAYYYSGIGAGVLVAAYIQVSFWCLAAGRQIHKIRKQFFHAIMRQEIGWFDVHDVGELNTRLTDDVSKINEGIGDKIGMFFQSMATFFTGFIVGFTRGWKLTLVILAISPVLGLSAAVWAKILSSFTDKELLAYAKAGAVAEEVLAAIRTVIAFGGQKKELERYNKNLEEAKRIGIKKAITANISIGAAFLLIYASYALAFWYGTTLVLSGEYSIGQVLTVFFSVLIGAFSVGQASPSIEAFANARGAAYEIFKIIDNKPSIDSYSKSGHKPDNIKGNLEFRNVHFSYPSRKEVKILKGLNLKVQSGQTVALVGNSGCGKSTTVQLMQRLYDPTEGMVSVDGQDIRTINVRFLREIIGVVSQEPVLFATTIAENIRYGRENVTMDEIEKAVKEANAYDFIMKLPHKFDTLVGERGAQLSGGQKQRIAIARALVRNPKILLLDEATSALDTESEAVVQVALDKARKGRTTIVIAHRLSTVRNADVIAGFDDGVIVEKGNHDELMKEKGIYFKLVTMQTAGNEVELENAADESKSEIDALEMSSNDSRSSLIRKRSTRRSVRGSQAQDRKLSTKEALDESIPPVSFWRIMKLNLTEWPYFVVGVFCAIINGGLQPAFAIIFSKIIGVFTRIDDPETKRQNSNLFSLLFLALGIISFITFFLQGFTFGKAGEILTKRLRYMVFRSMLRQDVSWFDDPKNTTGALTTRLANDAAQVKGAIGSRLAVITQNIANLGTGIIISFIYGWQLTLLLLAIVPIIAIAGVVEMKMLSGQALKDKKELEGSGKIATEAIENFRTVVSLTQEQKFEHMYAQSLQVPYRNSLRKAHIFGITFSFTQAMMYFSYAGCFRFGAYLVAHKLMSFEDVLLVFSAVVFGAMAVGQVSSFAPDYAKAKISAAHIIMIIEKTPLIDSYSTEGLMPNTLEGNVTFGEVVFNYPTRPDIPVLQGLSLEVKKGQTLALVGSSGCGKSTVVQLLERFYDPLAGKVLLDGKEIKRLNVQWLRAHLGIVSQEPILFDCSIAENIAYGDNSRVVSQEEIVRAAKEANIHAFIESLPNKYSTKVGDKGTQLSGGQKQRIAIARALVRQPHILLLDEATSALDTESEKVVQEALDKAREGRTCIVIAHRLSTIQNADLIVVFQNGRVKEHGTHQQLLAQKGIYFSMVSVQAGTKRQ
Description: The cells were incubated in a 37°C water bath, and 200 μl of TB was collected from the lower chamber (bile side) at 30, 60, 90, and 120 min. An equal amount of TB was immediately added after every sampling point. […] The apparent permeability coefficient Papp (cm/s) was estimated using Eq. (2). Here, Q, A, and C0 indicate the recovered amount of the compound on the bile side, the surface area of the insert membrane (0.3 cm^2), and the initial concentration of the substrate, respectively.2 Papp=dQ/dt/(A×C0)

BSEP [8] = conditions: cited from earlier work
icHep = conditions: for intracellular amount on DFP treatment: not told
BSEP [9] = tested on: BSEP; parameters: method as in PMID 23877105; conditions: SCHs; cited from earlier work
MRP2 [10] = molecular target: T1, MRP2; conditions: not told
OATP1B1 = molecular target: T2, OATP1B1 (Homo sapiens, UniProt Q9Y6L6)
T2 sequence (Q9Y6L6 1-691): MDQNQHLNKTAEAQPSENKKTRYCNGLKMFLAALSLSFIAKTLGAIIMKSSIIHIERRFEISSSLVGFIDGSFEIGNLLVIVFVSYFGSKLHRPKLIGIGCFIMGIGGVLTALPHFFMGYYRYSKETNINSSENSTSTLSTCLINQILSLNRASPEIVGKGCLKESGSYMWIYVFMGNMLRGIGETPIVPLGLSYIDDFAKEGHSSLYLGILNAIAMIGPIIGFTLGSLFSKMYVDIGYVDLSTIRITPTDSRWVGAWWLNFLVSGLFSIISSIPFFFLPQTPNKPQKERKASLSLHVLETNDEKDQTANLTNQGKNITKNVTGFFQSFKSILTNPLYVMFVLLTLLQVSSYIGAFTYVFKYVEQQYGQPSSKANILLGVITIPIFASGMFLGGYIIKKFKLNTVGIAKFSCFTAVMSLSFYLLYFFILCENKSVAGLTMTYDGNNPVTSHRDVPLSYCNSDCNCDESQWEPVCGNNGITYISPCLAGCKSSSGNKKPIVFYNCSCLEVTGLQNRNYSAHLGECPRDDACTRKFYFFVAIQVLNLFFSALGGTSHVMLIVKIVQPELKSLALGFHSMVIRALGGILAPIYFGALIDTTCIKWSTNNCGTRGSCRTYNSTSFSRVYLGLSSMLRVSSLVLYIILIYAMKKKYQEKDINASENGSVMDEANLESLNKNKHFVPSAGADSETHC

BSEP [11] = tested on: BSEP
CYP1A2 = CYP1A2 (Homo sapiens, UniProt P05177)
CYP1A2, sequence (P05177 whole entry): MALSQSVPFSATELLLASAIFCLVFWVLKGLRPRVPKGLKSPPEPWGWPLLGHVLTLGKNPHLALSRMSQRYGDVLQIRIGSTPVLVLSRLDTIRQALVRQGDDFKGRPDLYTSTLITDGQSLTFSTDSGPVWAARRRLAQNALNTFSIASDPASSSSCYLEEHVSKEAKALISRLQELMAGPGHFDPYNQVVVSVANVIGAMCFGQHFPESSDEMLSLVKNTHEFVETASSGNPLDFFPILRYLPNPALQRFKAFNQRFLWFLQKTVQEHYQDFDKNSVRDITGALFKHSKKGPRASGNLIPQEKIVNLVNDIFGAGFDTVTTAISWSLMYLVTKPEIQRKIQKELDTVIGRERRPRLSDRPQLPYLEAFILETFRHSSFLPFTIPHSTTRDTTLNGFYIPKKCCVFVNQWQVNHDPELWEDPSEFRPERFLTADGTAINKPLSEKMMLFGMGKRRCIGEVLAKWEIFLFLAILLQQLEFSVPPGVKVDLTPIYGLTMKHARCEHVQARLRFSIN

[12] = reported in vivo biliary excretion clearance
[13] = unbound fraction of the plasma protein
[14] = unbound fraction, reported value
[15] = estimated from observed CLbile with fp, Rb, Qh 1400 ml/min
[16] = estimated from observed in vivo CLbile with fp, Rb and Qh 1400 ml/min
[17] = Biliary excretion clearance, in vitro, observed, CLbile, int, icHep (HUM181001B), CLbile,app of icHep minus control cells

| Structure (SMILES) | Observed in vivo CLbile [1, 12] [mL/min] | Observed in vivo CLbile ([1]; reported value) [mL/min] | Rb ([2]; reported value) | Rb [2] | BEI (%) Mean ([3]; 2 min) [%] | Predicted in vivo CLbile, int, Mean ([3]; 2 min) [mL/min] | BEI (%) Mean ([3]; 5 min) [%] | Predicted in vivo CLbile, int, Mean ([3]; 5 min) [mL/min] | BEI (%) Mean ([3]; 10 min) [%] | Predicted in vivo CLbile, int, Mean ([3]; 10 min) [mL/min] | BEI (%) Mean ([3]; 20 min) [%] | Predicted in vivo CLbile, int, Mean ([3]; 20 min) [mL/min] | fp, unbound fraction of the plasma protein ([4]; reported value) | fp [4, 13] | fp [4, 14] | Observed in vivo CLbile, int [5, 15] [mL/min] | Observed in vivo CLbile, int [5, 16] [mL/min] | hepatocyte CLint at 1 μM [6, 17] [µL/min/1e6 cells] | further results |
| --- | --- | --- | --- | --- | --- | --- | --- | --- | --- | --- | --- | --- | --- | --- | --- | --- | --- | --- | --- |
| CCOc1ccc2ccccc2c1C(=O)N[C@@H]1C(=O)N2[C@@H]1SC(C)(C)[C@@H]2C(=O)O [Nafcillin, nafcillin] | 125 | 125 | 0.55 | 0.55 | 57.4 | 3401 | 42.7 | 1026 | 40.6 | 340 | 70.9 | 608 | 0.123[43] | 0.123 | 0.123 | 1213 | 1213 | 1.07 ± 0.14 | hepatocyte CLint at 1 μM (in vitro): 2.22 ± 1.01 µL/min/1e6 cells; Rb, blood/plasma concentration ratio ([2]; reported value): 0.55[43] |
| CCc1oc2ccccc2c1C(=O)c1cc(Br)c(O)c(Br)c1 [benzbromarone] | – | – | – | – | – | – | – | – | – | – | – | – | – | – | – | – | – | – | effect of MRP2 inhibitor on the increased appearance of CDF on the bile side (MRP2 [7]): reduced this increase to the same level as the control group |
| CC[C@]1(O)C[C@H]2CN(CCc3c([nH]c4ccccc34)[C@@](C(=O)OC)(c3cc4c(cc3OC)N(C=O)[C@H]3[C@@](O)(C(=O)OC)[C@H](OC(C)=O)[C@]5(CC)C=CCN6CC[C@]43[C@@H]65)C2)C1 [Vincristine, vincristine] | 12.9 | 12.9 | 1.2 | 1.2 | 11.7 | 329 | 16.5 | 199 | 26.3 | 190 | 40.4 | 168 | 0.51[47] | 0.51 | 0.51 | 25.5 | 25.5 | 0.128 ± 0.0438 | hepatocyte CLint at 1 μM [6]: 0.173 ± 0.052 µL/min/1e6 cells |
| C[C@H]1O[C@@H](O[C@H]2[C@@H](O)C[C@H](O[C@H]3[C@@H](O)C[C@H](O[C@H]4CC[C@@]5(C)[C@H](CC[C@@H]6[C@@H]5C[C@@H](O)[C@]5(C)[C@@H](C7=CC(=O)OC7)CC[C@]65O)C4)O[C@@H]3C)O[C@@H]2C)C[C@H](O)[C@@H]1O [Digoxin, digoxin] | – | – | – | – | 21.9 | 703 | 28.3 | 410 | 44.9 | 439 | 37.1 | 152 | – | – | – | 154 | 154 | – | permeability to the bile side in icHep compared to the control (P-gp): significantly increased |
| Cc1c(C)c2c(c(C)c1O)CCC(C)(COc1ccc(CC3SC(=O)NC3=O)cc1)O2 (stereo not drawn) [troglitazone] | – | – | – | – | – | – | – | – | – | – | – | – | – | – | – | – | – | – | IC50 (BSEP [8]): 2.3 µM |
| CCOc1nc2cccc(C(=O)O)c2n1Cc1ccc(-c2ccccc2-c2nnn[nH]2)cc1 [CAN, candesartan] | – | – | – | – | – | – | – | – | – | – | – | – | – | – | – | – | – | – | intracellular amount on DFP treatment (icHep): decreased; BSEP inhibition (BSEP [9]): not |
| C[C@]12CC[C@@H]3c4ccc(O)cc4CC[C@H]3[C@@H]1CC[C@@H]2O[C@@H]1O[C@H](C(=O)O)[C@@H](O)[C@H](O)[C@H]1O [E217βG] | – | – | – | – | – | – | – | – | – | – | – | – | – | – | – | – | – | – | permeability to the bile side in icHep compared to the control (MRP2 [10]): significantly increased; difference in OATP1B1 substrate uptake clearance between two donors (OATP1B1): 2.85 fold |
| CCOc1nc2cccc(C(=O)OC(C)OC(=O)OC3CCCCC3)c2n1Cc1ccc(-c2ccccc2-c2nnn[nH]2)cc1 (stereo not drawn) [CIL, candesartan cilexetil] | – | – | – | – | – | – | – | – | – | – | – | – | – | – | – | – | – | – | effect on intracellular accumulation of taurocholate (icHep): increased; intracellular amount on DFP treatment (icHep): increased; BSEP inhibition (BSEP [9]): inhibited; effect on biliary excretion clearance of taurocholate (BSEP [11]): decreased; effect on biliary excretion clearance of BSEP substrate taurocholate (BSEP [11]; CIL (10 μM) alone, taurocholate 1 μM, 120 min): did not affect |
| Cc1c(C)c2c(c(C)c1OS(=O)(=O)O)CCC(C)(COc1ccc(CC3SC(=O)NC3=O)cc1)O2 (stereo not drawn) [troglitazone sulfate] | – | – | – | – | – | – | – | – | – | – | – | – | – | – | – | – | – | – | IC50 (BSEP [8]): 4.2 µM |
| CN(Cc1cnc2nc(N)nc(N)c2n1)c1ccc(C(=O)N[C@@H](CCC(=O)O)C(=O)O)cc1 [Methotrexate, methotrexate] | 39.9 | 39.9 | 0.79 | 0.79 | – | 700 | 14.8 | 179 | 18.9 | 126 | – | 172 | 0.46[40] | 0.46 | 0.46 | 90.0 | 90.0 | 0.73 ± 0.268 | hepatocyte CLint at 1 μM [6]: 1.11 ± 0.217 µL/min/1e6 cells |
| CN/C(=N/CCSCc1nc[nH]c1C)NC#N [Cimetidine, cimetidine] | 9.9 | 9.9 | 0.97 | 0.97 | 48.1 | 2714 | 32.5 | 478 | 19.7 | 126 | 19.6 | 60.3 | 0.81[32] | 0.81 | 0.81 | 12.3 | 12.3 | 0.453 ± 0.163 | hepatocyte CLint at 1 μM [6]: 0.869 ± 0.0152 µL/min/1e6 cells |
| CC(=O)Nc1ccc(O)cc1 [Acetaminophen] | – | – | – | – | – | – | – | – | – | – | – | – | – | – | – | – | – | – | Enzyme activity, Mean (CYP1A2): 0.950 pmol/min/106 cells |
